Results on one compound are retold here after PMC10101930 (Immunity, 2023).

The assay addresses NHR-86 (Caenorhabditis elegans, UniProt Q965W2). As to the kind of experiment: intrinsic tryptophan fluorescence quenching of purified LBD. It counts as binding.

What is called Kd is a measure of binding affinity in units of concentration. High values mean weaker binding, low ones tighter binding.

Chain of NHR-86 (Q965W2 130-405): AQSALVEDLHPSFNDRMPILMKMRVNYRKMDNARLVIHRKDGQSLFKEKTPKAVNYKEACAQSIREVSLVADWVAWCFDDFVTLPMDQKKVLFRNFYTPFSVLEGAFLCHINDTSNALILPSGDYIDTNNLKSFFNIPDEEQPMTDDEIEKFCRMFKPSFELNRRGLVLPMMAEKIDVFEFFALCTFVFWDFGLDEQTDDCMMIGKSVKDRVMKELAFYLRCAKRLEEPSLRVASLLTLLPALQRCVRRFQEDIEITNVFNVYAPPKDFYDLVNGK

`NC(=O)c1cccc2nc3ccccc3nc12` [PCN, phenazine-1-carboxamide]: the dissociation constant (Kd) amounted to 24.2 µM. In other words, the double-digit micromolar range.
